Experiments:
Type in all cases: in vivo, rat
[1] = system: T2DN rats; assay: Diabetic nephropathy model (T2DN rats): blood pressure by tail cuff method; conditions: compound A 0.02% in mixed diet, lisinopril 10 mg/kg/day in drinking water, alone or combined, before and one month after dosing, FIG. 1
Method: (§1) The effect of compound A combined with ACE inhibitor in rats as a diabetic nephropathy model.
(§2) The test was conducted with rats (T2DN rats) that were an inbred line of Goto-Kakizaki (GK) rats with a manifestation of type II diabetes mellitus and which were in an advanced stage of kidney tissue injury resulting from a long-continued diabetic condition. Rats in groups each consisting of 8-9 animals (aged 14 months on average) were given repeated doses of compound A (0.02% in mixed diet) and the ACE inhibitor lisinopril (10 mg/kg/day in drinking water), either independently or in combination, for three months. A group of rats receiving only a diet containing no compound A were pathologic controls. Before and one month after the dosing, blood pressure measurement was conducted by the tail cuff method using a noninvasive automatic hemodynamometer. After the repeated dosing, the kidneys were removed from each rat under anesthetization with ketamine and thiobutabarbital and fixed in 10% neutral buffered formalin. Thin slices of the kidneys were prepared and subjected to Masson's trichrome stain. After masking the tissue specimens, thirty glomeruli were extracted from each specimen.
Blood pressure was expressed by the mean blood pressure as calculated from systolic and diastolic pressures ((systolic pressure−diastolic pressure)/3+diastolic pressure)).

[2] = system: T2DN rats; assay: Diabetic nephropathy model (T2DN rats): glomerular injury score, Masson's trichrome stain; conditions: compound A 0.02% in mixed diet, lisinopril 10 mg/kg/day in drinking water, alone or combined, three months, grade 0-4, 30 glomeruli, FIG. 2
Method: as §1, §2

[3] = system: T2DN rats; assay: Diabetic nephropathy model (T2DN rats): renocortical (interstitial) fibrosis area by image analyzer; conditions: compound A 0.02% in mixed diet, lisinopril 10 mg/kg/day in drinking water, alone or combined, three months, FIG. 3
Method: as §1, §2
To evaluate the morbidity of interstitial fibrosis, the fibrotic area percentage of 10 regions per specimen was calculated on an image analyzer.

[4] = system: Goto-Kakizaki (GK) rats; assay: Diabetic animal model (GK rats): systolic blood pressure by tail cuff method, crossover; conditions: GK rats on high-glucose diet; compound A in mixed diet, valsartan single oral dose, alone or combined; 1, 2, 4, 6 hours after administration; FIG. 4
Excerpt: The effect of compound A combined with angiotensin II receptor blocker in rats as a diabetic model. Goto-Kakizaki (GK) rats as model animals spontaneously manifesting non-obese diabetes mellitus (Japan SLC, Inc.) were fed a high-glucose diet containing compound A. During the feeding of compound A in a mixed diet, a vehicle or an angiotensin II receptor blocker was orally administered in a single dose and the effects of the two drugs, administered either independently or in combination, on blood pressure were studied by the crossover method. The systolic blood pressure was measured by the tail cuff method using a non-heated, noninvasive hemodynamometer immediately before the oral administration of the angiotensin II receptor blocker and 1, 2, 4, and 6 hours after such administration.

CCOc1ccc(Cc2cc([C@@H]3S[C@H](CO)[C@@H](O)[C@H](O)[C@H]3O)c(OC)cc2C)cc1 [Compound A, (1S)-1,5-anhydro-1-[3-(4-ethoxybenzyl)-6-methoxy-4-methylphenyl]-1-thio-D-glucitol]
blood pressure lowering action (mean blood pressure) [1]: little blood pressure lowering action | glomerular injury score (improvement of scores of glomerular damage) [2]: effective in improving scores of glomerular damage | renocortical fibrosis score (area of kidney interstitial fibrosis) [3]: effective in ameliorating kidney tissue damage | action for lowering the systolic blood pressure [4]: little blood lowering action

NCCCC[C@H](N[C@@H](CCc1ccccc1)C(=O)O)C(=O)N1CCC[C@H]1C(=O)O [Lisinopril, lisinopril]
blood pressure lowering action (mean blood pressure) [1]: a certain level of blood pressure lowering action | glomerular injury score (improvement of scores of glomerular damage) [2]: effective in improving scores of glomerular damage | renocortical fibrosis score (area of kidney interstitial fibrosis) [3]: no improvement in the area of interstitial fibrosis

CCCCC(=O)N(Cc1ccc(-c2ccccc2-c2nnn[nH]2)cc1)[C@H](C(=O)O)C(C)C [Valsartan, valsartan]
action for lowering the systolic blood pressure [4]: a certain level of action for lowering the systolic blood pressure
